Test results taken from article PMC5818615, “Use of HuH6 and other human-derived hepatoma lines for the detection of genotoxins: a new hope for laboratory animals?” (Archives of Toxicology, 2017).
Where two headings read alike, the source gives them in different places.

Experiments:
[1] = system: primary human hepatocytes; conditions: ref Wilkening et al. [2003]; cited from earlier work
[2] = ref IARC [1993]; cited from earlier work
Hep3B cells = conditions: Hep3B, 48 h, control 1.56 ± 0.18
PLC/PRF cells = conditions: PLC/PRF, 48 h, control 3.82 ± 1.22
WRL68 cells = conditions: 48 h, control 2.89 ± 1.16
HepG2 cells = conditions: 48 h, control 2.90 ± 1.03, starred P ≤ 0.05
HCC 1.2 cells = conditions: 48 h, control 6.61 ± 2.14, starred P ≤ 0.05
SNU-449 cells = conditions: 48 h, control 2.12 ± 0.59
JHH6 cells = conditions: 48 h, control 0.59 ± 0.21
HuH6 cells = conditions: 48 h, control 1.81 ± 1.15, starred P ≤ 0.05
HuH7 cells = conditions: 48 h, control 5.12 ± 1.05
SK-Hep1 cells = conditions: 48 h, control 2.84 ± 2.06
HepaRG cells = conditions: for % DNA in tail: HepaRG, 48 h
SNU-398 cells = conditions: 48 h, control 5.60 ± 3.26
[3] = system: human derived liver cell lines; conditions: SCGE experiments without exogenous enzyme activation mix

SMILES: Cn1c(N)nc2ncc(-c3ccccc3)cc21 [PhIP, 2-amino-1-methyl-6-phenylimidazo[4,5-b]pyridine]
- Sensitivity of primary hepatocytes compared with HepG2 [1]: substantially stronger effects
- IARC classification [2]: Causes guanine adducts that induces tumors at multiple sites in animal models IARC: Group 2B
- % DNA in tail (Hep3B cells; PhIP 50.0 µM): 1.43 ± 0.24%
- % DNA in tail (Hep3B cells; PhIP 100.0 µM): 0.82 ± 0.53%
- % DNA in tail (PLC/PRF cells; PhIP 50.0 µM): 2.51 ± 0.56%
- % DNA in tail (PLC/PRF cells; PhIP 100.0 µM): 4.00 ± 3.72%
- % DNA in tail (PLC/PRF cells; PhIP 300.0 µM): 2.43 ± 2.03%
- % DNA in tail (WRL68 cells; WRL68, PhIP 50.0 µM): 5.17 ± 3.21%
- % DNA in tail (WRL68 cells; WRL68, PhIP 100.0 µM): 3.77 ± 1.36%
- % DNA in tail (WRL68 cells; WRL68, PhIP 300.0 µM): 3.39 ± 3.35%
- % DNA in tail (HepG2 cells; HepG2, PhIP 50.0 µM): 6.92 ± 2.00%
- % DNA in tail (HepG2 cells; HepG2, PhIP 100.0 µM): 6.78 ± 1.37%
- % DNA in tail (HCC 1.2 cells; HCC 1.2, PhIP 50.0 µM): 17.5 ± 4.84%
- % DNA in tail (HCC 1.2 cells; HCC 1.2, PhIP 100.0 µM): 15.1 ± 2.32%
- % DNA in tail (HCC 1.2 cells; HCC 1.2, PhIP 300.0 µM): 14.8 ± 2.63%
- % DNA in tail (SNU-449 cells; SNU-449, PhIP 50.0 µM): 2.02 ± 0.81%
- % DNA in tail (SNU-449 cells; SNU-449, PhIP 100.0 µM): 3.06 ± 1.08%
- % DNA in tail (SNU-449 cells; SNU-449, PhIP 300.0 µM): 1.17 ± 0.83%
- % DNA in tail (JHH6 cells; JHH6, PhIP 50.0 µM): 0.93 ± 1.09%
- % DNA in tail (JHH6 cells; JHH6, PhIP 100.0 µM): 1.44 ± 0.53%
- % DNA in tail (HuH6 cells; HuH6, PhIP 50.0 µM): 11.51 ± 3.64%
- % DNA in tail (HuH6 cells; HuH6, PhIP 100.0 µM): 8.67 ± 2.67%
- % DNA in tail (HuH6 cells; HuH6, PhIP 300.0 µM): 24.7 ± 2.15%
- % DNA in tail (HuH7 cells; HuH7, PhIP 50.0 µM): 5.35 ± 2.84%
- % DNA in tail (HuH7 cells; HuH7, PhIP 100.0 µM): 9.21 ± 2.26%
- % DNA in tail (HuH7 cells; HuH7, PhIP 300.0 µM): 3.55 ± 2.08%
- % DNA in tail (SK-Hep1 cells; SK-Hep1, PhIP 50.0 µM): 5.18 ± 1.19%
- % DNA in tail (SK-Hep1 cells; SK-Hep1, PhIP 100.0 µM): 5.83 ± 1.06%
- % DNA in tail (SK-Hep1 cells; SK-Hep1, PhIP 300.0 µM): 5.77 ± 4.30%
- Result of SCGE experiments (in words) (HepaRG cells; HepaRG cells): detected
- % DNA in tail (HepaRG cells; PhIP 50.0 µM, control 0.53 ± 0.66, starred P ≤ 0.05): 4.82 ± 3.57%
- % DNA in tail (HepaRG cells; PhIP 100.0 µM, control 0.53 ± 0.66): 2.86 ± 1.73%
- % DNA in tail (SNU-398 cells; SNU-398, PhIP 50.0 µM): 2.92 ± 1.18%
- % DNA in tail (SNU-398 cells; SNU-398, PhIP 100.0 µM): 7.04 ± 5.97%
- % DNA in tail (SNU-398 cells; SNU-398, PhIP 300.0 µM): 10.3 ± 1.06%
- Number of the twelve lines sensitive towards the compound [3]: four
